From patent US11872311B2, “Metal bisphosphonate nanoparticles for anti-cancer therapy and imaging and for treating bone disorders” (The University of North Carolina at Chapel Hill, priority 2011, dated 2024)

Assays:
Format in all cases: cell-based
[1] = tested on: NCI-H460 large lung cancer cells; assay: Cancer cell growth inhibition assay, trypan blue exclusion (Ca-Pam particles); conditions: Homo sapiens, 48 h, pamidronate concentrations
Source text: NCI-H460 large lung cancer cells (American Type Culture Collection (ATCC)# HTB-177) were purchased from the Tissue Culture Facility of Lineberger Comprehensive Cancer Center at the University of North Carolina at Chapel Hill. The cell line was maintained as a suspension in RPMI-1640 growth medium (Cellgro®, Mediatech, Inc., Manassas, Virginia., United States of America) supplemented with 10% fetal bovine serum (Sigma, St. Louis, Missouri., United States of America) and 2% penicillin-streptomycin (Sigma, St. Louis, Missouri., United States of America).
Confluent H460 cells were counted from the culture flask using a hematocytometer. Cells were plated in 6-well plates at a cell density of 5×10^4 cells/well in 3 mL RPMI-1640 complete growth medium. The cells were incubated at 37° C. and 5% CO2 overnight. Pamidronate, and particle dispersions of Ca-Pam, lipid coated Ca-Pam, and AA-lipid coated Ca-Pam (80 μM) in RPMI-1640 media and additional media were added to wells, resulting in pamidronate concentrations (μM) of 0, 5, 10, 20, 40, and 80. Cells were incubated (37° C., 5% CO2) with free pamidronate or particle for 48 h. Viability was determined by the trypan blue exclusion assay.

[2] = tested on: H460 human lung carcinoma cells; assay: Cell viability assay, trypan blue cell counts (A-Ca-Zol particles); conditions: NCI-H460, 48 hrs
Protocol: Four cell culturing plates were set-up for cell viability assays. In each well, 100,000 H460 human lung carcinoma cells were placed in each well with 3 mL of RPMI media (supplemented with 10% FBS and 2% PenStrep) and were allowed to incubate overnight for cell adhesion at 37° C. at 5% CO2.
20 μM stock solutions of zolendrate, bare particle (i.e., as synthesized A-Ca-Zol), RGD targeted particle and anisamide targeted particle were prepared so that treatment curves of 0 μM, 1 μM, 5 μM, 10 μM, 20 μM and […] were established in RPMI media. After individual treatment, the plates were placed back in the incubator for 48 hrs.
After incubation, media and treatment was removed from each well and cells were washed 2× with 1 mL of PBS. 1 mL of trypsin was added to each well and placed back in the incubator for 3 min. The cells and trypsin were then transferred to centrifuge tubes and centrifuged for 3 min and the cell pellet was then redistributed in 1 mL of media. Cell counts were taken using 20 μL of cells and 20 μL trypan blue on a hemocytometer.

[3] = tested on: MCF-7 human breast cancer cells; assay: Cell viability, trypan blue exclusion (A-Mn-Zol particles); conditions: MCF7, MCF-7 cells, 48 h, zoledronate concentrations
Source text: (§1) NCI-H460 large lung cancer cells (ATCC # HTB-177) and MCF-7 human breast cancer cells (ATCC # HTB-22) were purchased from the Tissue Culture Facility of Lineberger Comprehensive Cancer Center at the University of North Carolina at Chapel Hill. The cell line was maintained as a suspension in RPMI-1640 growth medium (Cellgro®, Mediatech, Inc., Manassas, Virginia., United States of America) supplemented with 10% fetal bovine serum (Sigma, St. Louis, Missouri., United States of America) and 2% penicillin-streptomycin (Sigma, St. Louis, Missouri, United States of America).
Confluent MCF-7 cells were trypsinized (trypsin-EDTA, Sigma, St. Louis, Missouri, United States of America) and cell density was obtained from a hemocytometer. 6-well plates were seeded with 5.0×10^4 cells/well and a total of 3 mL media. The plates were incubated at 37° C. and 5% CO2 overnight. Amounts of zoledronate, liposomes, and particle dispersions in RPMI-1640 medium and additional media (5% phosphate buffered saline, Cellgro®, Mediatech, Inc., Manassas, Virginia., United States of America) were added to wells resulting in zoledronate concentrations of 0, 2.5, 5, 10, 20, and 40 μM. The plates were incubated at 37° C. and 5% CO2 for 48 h and viability was determined via the trypan blue exclusion assay. […]

[4] = tested on: NCI-H460 large lung cancer cells; assay: Cell viability, trypan blue exclusion (Mn-Zol particles); conditions: Homo sapiens, 48 h, zoledronate concentrations
Source text: as §1
Confluent H460 cells were counted from the culture flask using a hematocytometer. Cells were plated in 6-well plates at a cell density of 5×10^4 cells/well in 3 mL RPMI-1640 complete growth medium. The cells were incubated at 37° C. and 5% CO2 overnight. Zoledronate, bare liposome, and particle dispersions of Mn-Zol and lipid coated Mn-Zol (20 μM) in RPMI-1640 media and additional media were added to wells, resulting in zoledronate concentrations (μM) of 0, 1.0, 2.5, 5, 10, and 20. Cells were incubated (37° C., 5% CO2) with free zoledronate, liposome, or particle for 48 h. Viability was determined by the trypan blue exclusion assay.

[5] = tested on: human PC-3 prostate adenocarcinoma cells; assay: Cell viability assay in PC-3 cells (A-Ca-Zol particles)
Protocol: In addition, a cell viability assay was also performed in a similar manner, but using human PC-3 prostate adenocarcinoma cells. Cell viability results for PC-3 cells treated with either zoledronate or as synthesized A-Ca-Zol nanoparticles are provided in FIG. 24. The IC50's are estimated to be 3.1, and 0.8 for zoledronate and as-synthesized A-Ca-Zol, respectively.

[6] = tested on: ASPC-1; assay: Cytotoxicity assay against ASPC-1 (FIG. 35A); conditions: Homo sapiens, ASPC1
Source text: (§2) FIGS. 35A and 35B present data from cytotoxicity assays of Mn-Zol@DOPA, PEG-A-Zn-Zol, and AA-PEG-A-Mn-Zol particles against ASPC-1 (FIG. 35A) and MCF-7 cells (FIG. 35B).

[7] = tested on: MCF-7 cells; assay: Cytotoxicity assay against MCF-7 cells (FIG. 35B); conditions: Homo sapiens, MCF7
Source text: as §2

IC50 [1] [µM] | IC50 [2] [µM] | IC50 [3] [µM] | IC50 [4] [µM] | IC50 [5] [µM] | Structure (SMILES) | IC50 [6] [µM] | IC50 [7] [µM]
65 |  |  |  |  | NCCC(O)(P(=O)(O)O)P(=O)(O)O [pamidronate] |  | 
 | > 20 | 9 | > 20 | 3.1 | O=P(O)(O)C(O)(Cn1ccnc1)P(=O)(O)O [zoledronate] | > 60 | > 60
